Marks after values point to notes of the source that are not given here.
Test system: severe traumatic brain injury (sTBI) in rats
Assay: HPLC of free amino acids and amino group containing compounds in rat brain after sTBI (Example 4)
Type: in vivo
Experimental: The effects of daily sub-cutaneous injections of dextran sulfate on glutamate excitotoxicity and mitochondrial function after severe traumatic brain injury (sTBI) in rats were evaluated by high-performance liquid chromatography (HPLC) analysis of frozen brain samples.
The experimental protocol used in this study was approved by the Ethical Committee of the Catholic University of Rome, according to international standards and guidelines for animal care. Male Wistar rats of 300-350 g body weight (b.w.) were fed with standard laboratory diet and water ad libitum in a controlled environment.
They were divided into three groups: • 1) n=6 animals subjected to sTBI, with drug administration after 30 minutes and sacrifice at 2 days post-TBI (Acute phase 1) • 2) n=6 animals subjected to severe-TBI, with drug administration after 30 minutes and sacrifice at 7 days post-TBI (Acute phase 2). • 3) n=6 animals subjected to severe-TBI, with drug administration after 3 days and sacrifice at 7 days post-TBI (Chronic phase).
As the anesthetic mixture, animals received 35 mg/kg b.w. ketamine and 0.25 mg/kg b.w. midazolam by i.p. injection. sTBI was induced by dropping a 450 g weight from 2 m height on to the rat head that had been protected by a metal disk previously fixed on the skull, according to the “weight drop” impact acceleration model (Marmarou et al., A new model of diffuse brain injury in rats. Part I: Pathophysiology and biomechanics. J Neurosurg. 1994; 80: 291-300). […] At the end of each period of treatment, rats were anesthetized again and then immediately sacrificed.
The drug treatment was a subcutaneous injection of 0.5 ml of dextran sulfate (Tikomed AB, Viken, Sweden, WO 2016/076780; 15 mg/kg) and administered according to the aforementioned schematic protocol.
An in vivo craniectomy was performed in all animals during anesthesia, after carefully removing the rat's skull, the brain was exposed and removed with a surgical spatula and quickly dropped in liquid nitrogen. After the wet weight (w.w.) determination, tissue preparation was affected as previously disclosed (Tavazzi et al., Cerebral oxidative stress and depression of energy metabolism correlate with severity of diffuse brain injury in rats. Neurosurgery. 2005; 56: 582-589; Vagnozzi et al., Temporal window of metabolic brain vulnerability to concussions: mitochondrial-related impairment-part I. Neurosurgery. 2007; 61: 379-388; Tavazzi et al., Temporal window of metabolic brain vulnerability to concussions: oxidative and nitrosative stresses-part II. Neurosurgery. 2007; 61: 390-395; Amorini et al., Severity of experimental traumatic brain injury modulates changes in concentrations of cerebral free amino acids. J Cell Mol Med. 2017; 21: 530-542.). Briefly, whole brain homogenization was performed with 7 ml of ice-cold, nitrogen-saturated, precipitating solution composed by CH3CN+10 mM KH2PO4, pH 7.40, (3:1; v:v), and using an Ultra-Turrax set at 24,000 rpm/min (Janke & Kunkel, Staufen, Germany). After centrifugation at 20,690×g, for 10 min at 4° C., the clear supernatants were saved, pellets were supplemented with 3 ml of the precipitating solution and homogenized again as described above. A second centrifugation was performed (20,690×g, for 10 min at 4° C.), pellets were saved, supernatants combined with those previously obtained, extracted by vigorous agitation with a double volume of HPLC-grade CHCl3 and centrifuged as above. The upper aqueous phases containing water-soluble low-molecular weight compounds were collected, subjected to chloroform washings for two more times (this procedure allowed the removal of all the organic solvent and of any lipid soluble compound from the buffered tissue extracts), adjusted in volumes with 10 mM KH2PO4, pH 7.40, to have ultimately aqueous 10% tissue homogenates and saved at −80° C. until assayed. […]

[1] = Acute phase 1 (15 mg/kg s.c. 30 min after sTBI, sacrifice 2 days post-TBI)
[2] = Acute phase 2 (15 mg/kg s.c. 30 min after sTBI, sacrifice 7 days post-TBI)
[3] = Chronic phase (15 mg/kg s.c. 3 days after sTBI, sacrifice 7 days post-TBI)

dextran sulfate
cerebral ALA concentration [1]: 0.50 ± 0.12^a μmol/g (w.w.)
cerebral ARG concentration [1]: 0.13 ± 0.02^b,d μmol/g (w.w.)
cerebral ASN concentration [1]: 0.12 ± 0.02^i μmol/g (w.w.)
cerebral ASP concentration [1]: 2.40 ± 0.56^d,i μmol/g (w.w.)
cerebral CITR concentration [1]: 0.018 ± 0.004 µmol/g (w.w.)
cerebral GABA concentration [1]: 1.43 ± 0.25^a μmol/g (w.w.)
cerebral GLN concentration [1]: 4.78 ± 1.09^a μmol/g (w.w.)
cerebral GLU concentration [1]: 9.81 ± 1.66^i μmol/g (w.w.)
cerebral GLY concentration [1]: 0.83 ± 0.25^a,c μmol/g (w.w.)
cerebral HIS concentration [1]: 0.068 ± 0.015^b μmol/g (w.w.)
cerebral ILE concentration [1]: 0.038 ± 0.007 µmol/g (w.w.)
cerebral L-Cystat concentration [1]: 0.185 ± 0.031^b,c,i μmol/g (w.w.)
cerebral LEU concentration [1]: 0.021 ± 0.005^a,c μmol/g (w.w.)
cerebral LYS concentration [1]: 0.236 ± 0.057^b,d,h μmol/g (w.w.)
cerebral MET concentration [1]: 0.016 ± 0.005^d,j μmol/g (w.w.)
cerebral ORN concentration [1]: 0.014 ± 0.007 µmol/g (w.w.)
cerebral PHE concentration [1]: 0.031 ± 0.011^b,d μmol/g (w.w.)
cerebral SAH concentration [1]: 0.033 ± 0.008^b,c,j μmol/g (w.w.)
cerebral SER concentration [1]: 0.88 ± 0.25^a μmol/g (w.w.)
cerebral TAU concentration [1]: 4.86 ± 0.85^b μmol/g (w.w.)
cerebral THR concentration [1]: 0.92 ± 0.29^a μmol/g (w.w.)
cerebral TRP concentration [1]: 0.030 ± 0.007^b,dg,i μmol/g (w.w.)
cerebral TYR concentration [1]: 0.15 ± 0.03 µmol/g (w.w.)
cerebral VAL concentration [1]: 0.042 ± 0.011 µmol/g (w.w.)
cerebral ALA concentration [2]: 0.52 ± 0.24^a,e μmol/g (w.w.)
cerebral ARG concentration [2]: 0.16 ± 0.03 µmol/g (w.w.)
cerebral ASN concentration [2]: 0.13 ± 0.03^i μmol/g (w.w.)
cerebral ASP concentration [2]: 2.94 ± 0.98^f,j μmol/g (w.w.)
cerebral CITR concentration [2]: 0.018 ± 0.008 µmol/g (w.w.)
cerebral GABA concentration [2]: 1.60 ± 0.24^a μmol/g (w.w.)
cerebral GLN concentration [2]: 3.66 ± 0.41 µmol/g (w.w.)
cerebral GLU concentration [2]: 9.93 ± 1.56^e,i μmol/g (w.w.)
cerebral GLY concentration [2]: 0.71 ± 0.16^f,i μmol/g (w.w.)
cerebral HIS concentration [2]: 0.055 ± 0.019 µmol/g (w.w.)
cerebral ILE concentration [2]: 0.048 ± 0.017^a μmol/g (w.w.)
cerebral L-Cystat concentration [2]: 0.173 ± 0.038^b,f,i μmol/g (w.w.)
cerebral LEU concentration [2]: 0.018 ± 0.004 µmol/g (w.w.)
cerebral LYS concentration [2]: 0.32 ± 0.04^a,e,i μmol/g (w.w.)
cerebral MET concentration [2]: 0.022 ± 0.006^b,e,i μmol/g (w.w.)
cerebral ORN concentration [2]: 0.011 ± 0.005 µmol/g (w.w.)
cerebral PHE concentration [2]: 0.028 ± 0.010 µmol/g (w.w.)
cerebral SAH concentration [2]: 0.026 ± 0.010^f,i μmol/g (w.w.)
cerebral SER concentration [2]: 0.71 ± 0.28^b μmol/g (w.w.)
cerebral TAU concentration [2]: 3.80 ± 1.19 µmol/g (w.w.)
cerebral THR concentration [2]: 0.66 ± 0.23 µmol/g (w.w.)
cerebral TRP concentration [2]: 0.015 ± 0.006 µmol/g (w.w.)
cerebral TYR concentration [2]: 0.172 ± 0.046^b,f μmol/g (w.w.)
cerebral VAL concentration [2]: 0.057 ± 0.017 µmol/g (w.w.)
cerebral ALA concentration [3]: 0.57 ± 0.28^a,e μmol/g (w.w.)
cerebral ARG concentration [3]: 0.14 ± 0.02 µmol/g (w.w.)
cerebral ASN concentration [3]: 0.18 ± 0.02^a μmol/g (w.w.)
cerebral ASP concentration [3]: 4.46 ± 0.70^a,f μmol/g (w.w.)
cerebral CITR concentration [3]: 0.020 ± 0.006 µmol/g (w.w.)
cerebral GABA concentration [3]: 1.85 ± 0.65^a μmol/g (w.w.)
cerebral GLN concentration [3]: 3.98 ± 0.34 µmol/g (w.w.)
cerebral GLU concentration [3]: 13.58 ± 1.28^a μmol/g (w.w.)
cerebral GLY concentration [3]: 1.05 ± 0.13^a,f μmol/g (w.w.)
cerebral HIS concentration [3]: 0.047 ± 0.021 µmol/g (w.w.)
cerebral ILE concentration [3]: 0.041 ± 0.016^b μmol/g (w.w.)
cerebral L-Cystat concentration [3]: 0.26 ± 0.05^a,f μmol/g (w.w.)
cerebral LEU concentration [3]: 0.024 ± 0.032^b,f μmol/g (w.w.)
cerebral LYS concentration [3]: 0.179 ± 0.036 µmol/g (w.w.)
cerebral MET concentration [3]: 0.009 ± 0.004^b μmol/g (w.w.)
cerebral ORN concentration [3]: 0.017 ± 0.009^a,e μmol/g (w.w.)
cerebral PHE concentration [3]: 0.033 ± 0.011^b μmol/g (w.w.)
cerebral SAH concentration [3]: 0.050 ± 0.013^a μmol/g (w.w.)
cerebral SER concentration [3]: 0.93 ± 0.27^a,e μmol/g (w.w.)
cerebral TAU concentration [3]: 4.49 ± 0.43^a μmol/g (w.w.)
cerebral THR concentration [3]: 0.75 ± 0.24^a,e μmol/g (w.w.)
cerebral TRP concentration [3]: 0.012 ± 0.007 µmol/g (w.w.)
cerebral TYR concentration [3]: 0.21 ± 0.05^f μmol/g (w.w.)
cerebral VAL concentration [3]: 0.040 ± 0.016^b μmol/g (w.w.)
increase in cerebral glutamate (GLU) induced by sTBI (drug administered early post-injury (30 min following sTBI), 15 mg/kg s.c.): remarkable inhibition
efficacy on glutamate excitotoxicity marker (drug injected at 3 days after sTBI): no efficacy
compounds of the methyl cycle (Met, L-Cystat, SAH) (rat brain after sTBI, 15 mg/kg s.c.): significant beneficial effects
